Reference: patent publication US6469057B1, “Methods for in vivo reduction of free radical levels and compositions useful therefor” (MCW Research Foundation, Inc., priority 1995, dated 2002)
“Also recorded” adds a separate entry of the source.

How the values were obtained:
[1] = tested on: NO; assay: Ex vivo EPR measurement of [(MGD)2/Fe-NO] levels in the urine of normal mice
Protocol: Normal mice housed in a restraining tube were injected subcutaneously with 0.4 ml of the [(MGD)2/Fe] complex (326 mg/Kg of MGD and 34 mg/Kg of FeSO4). After 2 hours, the animals were sacrificed and the urine samples were collected from the urinary bladder. The urine sample, which was dark brown (characteristic of the presence of [(MGD)2/Fe] complex), was transferred to a quartz flat cell for EPR measurement. The spectra were recorded at 22° C. with an X-band EPR spectrometer, operating at 9.5 GHz. Instrument settings include 100-G field scan, 4-min scan time, 0.5-s time constant, 2.5-G modulation amplitude, 100-KHz modulation frequency and 100-mW microwave power. The concentrations of the [(MGD)2/Fe—NO] complex in the urine samples were calculated by comparing the signal intensities obtained from the samples to the signal intensity of a standard solution containing 0.1 mM of the [(MGD)2/Fe—NO] complex.
For inhibition experiments, mice were injected intraperitoneally with 50 mg/kg NMMA in saline immediately after the injection of the [(MGD)2/Fe] complex. In other experiments, mice were injected intravenously with 3 mg/kg dexamethasone in saline about 1.5 h before the injection of the [(MGD)2/Fe] complex. […] Acetylcholine chloride (Sigma) in saline was freshly prepared prior to subcutaneous injection at a dose of 67 mg/kg.
At 2 h after subcutaneous injection of an aliquot (0.4 ml) of the [(MGD)2/Fe] complex (326 mg/Kg of MGD and 34 mg/Kg of FeSO4) into normal mice (A) (and also in the presence of NMMA (50 mg/kg) (B), or of dexamethasone (3 mg/kg) (C)), the animals were sacrificed and the urine samples collected and transferred to a quartz flat cell for X-band (9.5 GHz) EPR measurement at 22° C.

[2] = tested on: NO; assay: Ex vivo EPR measurement of [(MGD)2/Fe-NO] levels in the urine of LPS-treated mice; settings: for [(MGD)2/Fe-NO] present in LPS-treated mouse urine: urine 2 h later
Protocol: After 2 h, the mouse was sacrificed and the urine sample was collected from the urinary bladder, and immediately transferred to a quartz flat cell for X-band EPR measurement as described above in Example 2B. Inhibition experiments with NMMA or dexamethasone were performed as described above in Example 2A, except that the mice were treated with LPS prior to following the protocols for NO inhibition experiments. The procedures for S-band EPR measurement of wet tissues and blood samples were as described previously (Lai and Komarov, supra).
Thus, at 6 h after LPS treatment, mice were injected with the [(MGD)2/Fe] complex, with and without i.p. injection of NMMA (50 mg/kg). The mice were sacrificed at 2 h after injection of the [(MGD)2/Fe] complex. The urine samples were collected and the EPR measurement was carried out at 22° C.

SMILES | [(MGD)2/Fe-NO] present in mouse urine ([1]; mouse, in vivo) | increase in urinary [(MGD)2/Fe-NO] levels ([1]; normal mice, acetylcholine 67 mg/kg s.c.) | effect on the [(MGD)2/Fe-NO] EPR signal in urine ([1]; normal mice, NMMA 50 mg/kg i.p., dexamethasone 3 mg/kg i.v. pretreatment) | effect on signal intensity of [(MGD)2/Fe-NO] in the urine of LPS-treated mice ([2]; NMMA 50 mg/kg i.p. at 6 h after LPS) | [(MGD)2/Fe-NO] present in LPS-treated mouse urine ([2]; NMMA 50 mg/kg i.p. at 6 h after LPS just prior to [(MGD)2/Fe]) | [(MGD)2/Fe-NO] present in LPS-treated mouse urine ([2]; NMMA 100 mg/kg i.p. at 6 h after LPS just prior to [(MGD)2/Fe])
CC(=O)OCC[N+](C)(C)C.[Cl-] [Acetylcholine, acetylcholine chloride] | 3.9 ± 0.8 (3) μM | 3 fold | – | – | – | –
CNC(=N)NCCC[C@H](N)C(=O)O [NMMA, N^G-monomethyl-L-arginine] | – | – | markedly reduced | markedly reduces the signal intensity; also recorded: markedly reducing the signal intensity | 3.6 ± 0.9 (4) | 7.3 ± 2.2 (3)
